Assay results as given in patent publication US12479847B2 (DANA-FARBER CANCER INSTITUTE, INC., priority 2019, dated 2025).

target: human LRRK2 kinase (Homo sapiens, UniProt Q5S007); assay: not given; conditions: LRRK2, ADP-Glo, ATP 10 μM, 60 minutes at 25° C.
Sequence (Q5S007 whole entry): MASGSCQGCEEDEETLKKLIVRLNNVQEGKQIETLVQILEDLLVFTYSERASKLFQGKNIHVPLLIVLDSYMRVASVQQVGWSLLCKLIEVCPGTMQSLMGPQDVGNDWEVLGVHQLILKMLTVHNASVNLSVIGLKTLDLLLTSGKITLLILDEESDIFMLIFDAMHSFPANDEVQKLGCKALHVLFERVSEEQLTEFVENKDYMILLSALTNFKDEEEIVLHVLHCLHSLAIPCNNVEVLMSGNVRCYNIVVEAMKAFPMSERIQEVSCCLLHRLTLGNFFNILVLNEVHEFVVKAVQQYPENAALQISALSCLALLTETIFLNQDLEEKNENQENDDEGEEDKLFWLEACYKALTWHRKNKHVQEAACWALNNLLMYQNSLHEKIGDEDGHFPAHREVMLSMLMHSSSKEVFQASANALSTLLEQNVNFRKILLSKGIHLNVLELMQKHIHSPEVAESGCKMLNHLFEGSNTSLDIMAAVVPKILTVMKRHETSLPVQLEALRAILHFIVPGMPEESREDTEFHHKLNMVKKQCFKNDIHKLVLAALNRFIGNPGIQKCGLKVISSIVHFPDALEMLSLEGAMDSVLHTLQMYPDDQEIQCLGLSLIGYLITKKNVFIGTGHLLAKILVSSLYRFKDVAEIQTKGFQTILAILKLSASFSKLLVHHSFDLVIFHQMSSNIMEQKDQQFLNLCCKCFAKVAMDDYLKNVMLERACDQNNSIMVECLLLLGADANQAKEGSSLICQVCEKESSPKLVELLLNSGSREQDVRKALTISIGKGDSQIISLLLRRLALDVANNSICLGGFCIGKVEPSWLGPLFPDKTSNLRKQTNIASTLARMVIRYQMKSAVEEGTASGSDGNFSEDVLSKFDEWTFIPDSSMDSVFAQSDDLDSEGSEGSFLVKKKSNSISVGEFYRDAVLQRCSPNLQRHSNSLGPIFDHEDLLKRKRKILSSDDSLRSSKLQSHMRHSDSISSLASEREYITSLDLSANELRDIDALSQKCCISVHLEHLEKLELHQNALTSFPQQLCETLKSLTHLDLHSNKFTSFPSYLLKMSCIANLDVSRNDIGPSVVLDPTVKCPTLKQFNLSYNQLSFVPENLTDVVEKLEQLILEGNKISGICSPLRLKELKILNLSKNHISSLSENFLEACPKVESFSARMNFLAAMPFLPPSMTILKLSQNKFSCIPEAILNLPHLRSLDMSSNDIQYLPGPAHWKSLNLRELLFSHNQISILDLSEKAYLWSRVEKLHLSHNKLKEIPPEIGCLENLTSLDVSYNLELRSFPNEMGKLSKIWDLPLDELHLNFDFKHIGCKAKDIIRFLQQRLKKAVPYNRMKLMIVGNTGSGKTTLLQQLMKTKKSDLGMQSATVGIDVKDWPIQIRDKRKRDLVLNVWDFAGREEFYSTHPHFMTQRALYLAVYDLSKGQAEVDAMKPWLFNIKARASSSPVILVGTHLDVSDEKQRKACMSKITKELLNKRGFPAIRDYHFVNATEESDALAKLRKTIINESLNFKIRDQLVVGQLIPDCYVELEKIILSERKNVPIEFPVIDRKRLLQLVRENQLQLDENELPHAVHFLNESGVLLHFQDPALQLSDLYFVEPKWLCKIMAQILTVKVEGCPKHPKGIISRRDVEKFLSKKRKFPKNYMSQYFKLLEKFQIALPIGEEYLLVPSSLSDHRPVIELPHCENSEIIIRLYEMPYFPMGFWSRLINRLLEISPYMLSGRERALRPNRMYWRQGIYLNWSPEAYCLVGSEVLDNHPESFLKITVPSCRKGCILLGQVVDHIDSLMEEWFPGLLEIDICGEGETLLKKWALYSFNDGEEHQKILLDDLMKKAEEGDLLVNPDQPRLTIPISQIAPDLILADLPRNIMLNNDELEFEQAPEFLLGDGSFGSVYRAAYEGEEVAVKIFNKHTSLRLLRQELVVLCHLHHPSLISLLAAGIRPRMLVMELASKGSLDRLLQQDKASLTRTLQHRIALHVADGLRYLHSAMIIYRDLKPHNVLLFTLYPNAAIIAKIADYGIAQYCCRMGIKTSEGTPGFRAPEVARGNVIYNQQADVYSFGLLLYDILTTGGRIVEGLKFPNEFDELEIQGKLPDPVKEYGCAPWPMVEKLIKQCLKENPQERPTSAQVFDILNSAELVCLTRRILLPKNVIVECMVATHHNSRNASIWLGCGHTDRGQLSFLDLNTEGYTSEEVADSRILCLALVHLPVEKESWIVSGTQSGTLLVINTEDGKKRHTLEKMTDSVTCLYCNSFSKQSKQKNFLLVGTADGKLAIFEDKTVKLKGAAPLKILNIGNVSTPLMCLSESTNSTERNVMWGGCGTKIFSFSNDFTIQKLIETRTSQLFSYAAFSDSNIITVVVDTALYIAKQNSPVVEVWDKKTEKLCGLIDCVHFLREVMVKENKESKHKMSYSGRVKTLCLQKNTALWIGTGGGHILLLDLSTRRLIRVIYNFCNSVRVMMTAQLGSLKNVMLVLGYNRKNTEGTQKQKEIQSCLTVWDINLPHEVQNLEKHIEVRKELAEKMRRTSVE

First: CCCNc1nc(Nc2ccc(C(=O)N3CCC(N4CCOCC4)CC3)c3c2OCCO3)nc2[nH]cc(Cl)c12 [Compound 2, (8-((5-chloro-4-(propylamino)-7H-pyrrolo[2,3-d]pyrimidin-2-yl)amino)-2,3-dihydrobenzo[b][1,4]dioxin-5-yl)(4-morpholinopiperidin-1-yl)methanone]
Second: CCCNc1nc(Nc2ccc(C(=O)N3CCC(N4CCOCC4)CC3)c3c2OCC3)nc2[nH]cc(Cl)c12 [Compound 102, (7-((5-chloro-4-(propylamino)-7H-pyrrolo[2,3-d]pyrimidin-2-yl)amino)-2,3-dihydrobenzofuran-4-yl)(4-morpholinopiperidin-1-yl)methanone]
The IC50 of the first is lower: < 10 nM for the first, 10 to 100 nM for the second. The first is the more potent here.

`CCCNc1nc(Nc2ccc(S(=O)(=O)N3CCC(N4CCOCC4)CC3)cc2OC)nc2[nH]cc(Cl)c12` [Compound 19, 5-chloro-N2-(2-methoxy-4-((4-morpholinopiperidin-1-yl)sulfonyl)phenyl)-N4-propyl-7H-pyrrolo[2,3-d]pyrimidine-2,4-diamine] and `COc1cc(S(=O)(=O)N2CCC(N3CCOCC3)CC2)ccc1Nc1nc(NC(C)C)c2c(Cl)c[nH]c2n1` [Compound 87, 5-chloro-N4-isopropyl-N2-(2-methoxy-4-((4-morpholinopiperidin-1-yl)sulfonyl)phenyl)-7H-pyrrolo[2,3-d]pyrimidine-2,4-diamine] fall in the same range of IC50: 100 to 1000 nM for the first, 100 to 1000 nM for the second.

First: O=C(c1ccc(Nc2nc(NC3CCCCC3)c3c(Cl)c[nH]c3n2)c2c1CCO2)N1CCOCC1 [Compound 83, (7-((5-chloro-4-(cyclohexylamino)-7H-pyrrolo[2,3-d]pyrimidin-2-yl)amino)-2,3-dihydrobenzofuran-4-yl)(morpholino)methanone]
Second: O=C(c1ccc(Nc2nc(NC3CCC3)c3c(Cl)c[nH]c3n2)c2c1CCO2)N1CCC(N2CCOCC2)CC1 [Compound 103, (7-((5-chloro-4-(cyclobutylamino)-7H-pyrrolo[2,3-d]pyrimidin-2-yl)amino)-2,3-dihydrobenzofuran-4-yl)(4-morpholinopiperidin-1-yl)methanone]
The IC50 of the first is higher: 100 to 1000 nM for the first, 10 to 100 nM for the second. The second is the more potent here.

`CCNc1nc(Nc2ccc(P3(=O)CCN(C4CC4)CC3)cc2OC)nc2[nH]cc(Cl)c12` [Compound 84, 4-(4-((5-chloro-4-(ethylamino)-7H-pyrrolo[2,3-d]pyrimidin-2-yl)amino)-3-methoxyphenyl)-1-cyclopropyl-1,4-azaphosphinane 4-oxide] and `CCCNc1nc(Nc2ccc(P3(=O)CCN(C4CC4)CC3)cc2OC)nc2[nH]cc(Cl)c12` [Compound 99, 4-(4-((5-chloro-4-(propylamino)-7H-pyrrolo[2,3-d]pyrimidin-2-yl)amino)-3-methoxyphenyl)-1-cyclopropyl-1,4-azaphosphinane 4-oxide] fall in the same range of IC50: 10 to 100 nM for the first, 10 to 100 nM for the second.

Compared with `CNc1nc(Nc2ccc(P3(=O)CCN(C4CC4)CC3)cc2OC)nc2[nH]cc(Cl)c12` [Compound 85, 4-(4-((5-chloro-4-(methylamino)-7H-pyrrolo[2,3-d]pyrimidin-2-yl)amino)-3-methoxyphenyl)-1-cyclopropyl-1,4-azaphosphinane 4-oxide], `COc1cc(P2(=O)CCN(C3CC3)CC2)ccc1Nc1nc(NCC(C)C)c2c(Cl)c[nH]c2n1` [Compound 96, 4-(4-((5-chloro-4-(isobutylamino)-7H-pyrrolo[2,3-d]pyrimidin-2-yl)amino)-3-methoxyphenyl)-1-cyclopropyl-1,4-azaphosphinane 4-oxide] is higher in IC50: 10 to 100 nM for the first, 100 to 1000 nM for the second.

`CNc1nc(Nc2ccc(C(=O)N3CCC(N4CCOCC4)CC3)c3c2OCC3)nc2[nH]cc(Cl)c12` [Compound 86, (7-((5-chloro-4-(methylamino)-7H-pyrrolo[2,3-d]pyrimidin-2-yl)amino)-2,3-dihydrobenzofuran-4-yl)(4-morpholinopiperidin-1-yl)methanone] and `CCNc1nc(Nc2ccc(C(=O)N3CCC(N4CCOCC4)CC3)c3c2OCC3)nc2[nH]cc(Cl)c12` [Compound 105, (7-((5-chloro-4-(ethylamino)-7H-pyrrolo[2,3-d]pyrimidin-2-yl)amino)-2,3-dihydrobenzofuran-4-yl)(4-morpholinopiperidin-1-yl)methanone] cannot be ordered by IC50: < 10 nM for the first, < 10 nM for the second.

Compared with `CC(C)Nc1nc(Nc2ccc(C(=O)N3CCC(N4CCOCC4)CC3)c3c2OCCO3)nc2[nH]cc(Cl)c12` [Compound 88], `O=C(c1ccc(Nc2nc(N[C@H]3CCOC3)c3c(Cl)c[nH]c3n2)c2c1OCCO2)N1CCOCC1` [Compound 95] is lower in IC50: 10 to 100 nM for the first, < 10 nM for the second.

`COc1cc(P2(=O)CCN(C(C)=O)CC2)ccc1Nc1nc(NC(C)C)c2c(Cl)c[nH]c2n1` [Compound 89, 1-(4-(4-((5-chloro-4-(isopropylamino)-7H-pyrrolo[2,3-d]pyrimidin-2-yl)amino)-3-methoxyphenyl)-4-oxido-1,4-azaphosphinan-1-yl)ethan-1-one] and `COc1cc(P2(=O)CCN(C(C)=O)CC2)ccc1Nc1nc(NCC(C)C)c2c(Cl)c[nH]c2n1` [Compound 97, 1-(4-(4-((5-chloro-4-(isobutylamino)-7H-pyrrolo[2,3-d]pyrimidin-2-yl)amino)-3-methoxyphenyl)-4-oxido-1,4-azaphosphinan-1-yl)ethan-1-one] fall in the same range of IC50: 10 to 100 nM for the first, 10 to 100 nM for the second.

`COc1cc(P2(=O)CCN(C3CC3)CC2)ccc1Nc1nc(NC2CC2)c2c(Cl)c[nH]c2n1` [Compound 90, 4-(4-((5-chloro-4-(cyclopropylamino)-7H-pyrrolo[2,3-d]pyrimidin-2-yl)amino)-3-methoxyphenyl)-1-cyclopropyl-1,4-azaphosphinane 4-oxide] and `COc1cc(P2(=O)CCN(C3CC3)CC2)ccc1Nc1nc(NC2CCC2)c2c(Cl)c[nH]c2n1` [Compound 104, 4-(4-((5-chloro-4-(cyclobutylamino)-7H-pyrrolo[2,3-d]pyrimidin-2-yl)amino)-3-methoxyphenyl)-1-cyclopropyl-1,4-azaphosphinane 4-oxide] fall in the same range of IC50: 10 to 100 nM for the first, 10 to 100 nM for the second.

First: COc1cc(P2(=O)CCN(C(C)=O)CC2)ccc1Nc1nc(NC2CC2)c2c(Cl)c[nH]c2n1 [Compound 91, 1-(4-(4-((5-chloro-4-(cyclopropylamino)-7H-pyrrolo[2,3-d]pyrimidin-2-yl)amino)-3-methoxyphenyl)-4-oxido-1,4-azaphosphinan-1-yl)ethan-1-one]
Second: COc1cc(P2(=O)CCN(C(C)=O)CC2)ccc1Nc1nc(NC2CCC2)c2c(Cl)c[nH]c2n1 [Compound 92]
The IC50 of the first is lower: < 10 nM for the first, 10 to 100 nM for the second. The first is the more potent here.

Compared with `COc1cc(P2(=O)CCN(C3CC3)CC2)ccc1Nc1nc(NC2CCCCC2)c2c(Cl)c[nH]c2n1` [Compound 93, 4-(4-((5-chloro-4-(cyclohexylamino)-7H-pyrrolo[2,3-d]pyrimidin-2-yl)amino)-3-methoxyphenyl)-1-cyclopropyl-1,4-azaphosphinane 4-oxide], `CCNc1nc(Nc2ccc(P3(=O)CCN(C(C)=O)CC3)cc2OC)nc2[nH]cc(Cl)c12` [Compound 98] is lower in IC50: 100 to 1000 nM for the first, < 10 nM for the second.

First: COc1cc(S(C)(=O)=O)ccc1Nc1nc(N[C@H]2CCOC2)c2c(Cl)c[nH]c2n1 [Compound 94, (S)-5-chloro-N2-(2-methoxy-4-(methylsulfonyl)phenyl)-N4-(tetrahydrofuran-3-yl)-7H-pyrrolo[2,3-d]pyrimidine-2,4-diamine]
Second: CCCNc1nc(Nc2ccc(P3(=O)CCN(C(C)=O)CC3)cc2OC)nc2[nH]cc(Cl)c12 [Compound 100, 1-(4-(4-((5-chloro-4-(propylamino)-7H-pyrrolo[2,3-d]pyrimidin-2-yl)amino)-3-methoxyphenyl)-4-oxido-1,4-azaphosphinan-1-yl)ethan-1-one]
The IC50 of the first is lower: < 10 nM for the first, 10 to 100 nM for the second. The first is the more potent here.

For `CCNc1nc(Nc2ccc(C(=O)N3CCOCC3)c3c2OCC3)nc2[nH]cc(Cl)c12` [Compound 101, (7-((5-chloro-4-(ethylamino)-7H-pyrrolo[2,3-d]pyrimidin-2-yl)amino)-2,3-dihydrobenzofuran-4-yl)(morpholino)methanone], the IC50 was < 10 nM.

target: T1, wild-type LRKK2 (Mus musculus, UniProt Q5S006); assay: LRRK2 immunoblot, phosphorylation of Ser935, NIH-3T3 cell lysates; format: cell-based; conditions: FIG. 1
T1 construct: endogenous in cells; host or cells: NIH-3T3
Description: Cell lysates were extracted from the NIH-3T3 cell pellet using lysis buffer (40 mM Tris-HCl pH 8.0, 120 mM NaCl, 0.10% Nonidet™-P40) supplemented with protease inhibitors. Proteins in whole-cell lysates were separated by SDS-PAGE and transferred to an Amersham™ nitrocellulose membrane (Amersham, UK). Nitrocellulose membranes were blocked with 5% skim milk in phosphate-buffered saline containing Tween 20 and incubated with primary antibodies overnight at 4° C. The blots were then incubated with the appropriate horseradish peroxidase (HRP)-conjugated secondary antibodies and proteins were visualized by enhanced chemiluminescence, according to the manufacturer's protocol (Amersham™ Western blotting). Secondary antibodies, anti-rabbit IgG-HRP were purchased from Cell Signaling technology. Immunoblot film were scanned on a LAS500 scanner, and images were managed with Adobe Photoshop

T1 sequence (Q5S006 whole entry): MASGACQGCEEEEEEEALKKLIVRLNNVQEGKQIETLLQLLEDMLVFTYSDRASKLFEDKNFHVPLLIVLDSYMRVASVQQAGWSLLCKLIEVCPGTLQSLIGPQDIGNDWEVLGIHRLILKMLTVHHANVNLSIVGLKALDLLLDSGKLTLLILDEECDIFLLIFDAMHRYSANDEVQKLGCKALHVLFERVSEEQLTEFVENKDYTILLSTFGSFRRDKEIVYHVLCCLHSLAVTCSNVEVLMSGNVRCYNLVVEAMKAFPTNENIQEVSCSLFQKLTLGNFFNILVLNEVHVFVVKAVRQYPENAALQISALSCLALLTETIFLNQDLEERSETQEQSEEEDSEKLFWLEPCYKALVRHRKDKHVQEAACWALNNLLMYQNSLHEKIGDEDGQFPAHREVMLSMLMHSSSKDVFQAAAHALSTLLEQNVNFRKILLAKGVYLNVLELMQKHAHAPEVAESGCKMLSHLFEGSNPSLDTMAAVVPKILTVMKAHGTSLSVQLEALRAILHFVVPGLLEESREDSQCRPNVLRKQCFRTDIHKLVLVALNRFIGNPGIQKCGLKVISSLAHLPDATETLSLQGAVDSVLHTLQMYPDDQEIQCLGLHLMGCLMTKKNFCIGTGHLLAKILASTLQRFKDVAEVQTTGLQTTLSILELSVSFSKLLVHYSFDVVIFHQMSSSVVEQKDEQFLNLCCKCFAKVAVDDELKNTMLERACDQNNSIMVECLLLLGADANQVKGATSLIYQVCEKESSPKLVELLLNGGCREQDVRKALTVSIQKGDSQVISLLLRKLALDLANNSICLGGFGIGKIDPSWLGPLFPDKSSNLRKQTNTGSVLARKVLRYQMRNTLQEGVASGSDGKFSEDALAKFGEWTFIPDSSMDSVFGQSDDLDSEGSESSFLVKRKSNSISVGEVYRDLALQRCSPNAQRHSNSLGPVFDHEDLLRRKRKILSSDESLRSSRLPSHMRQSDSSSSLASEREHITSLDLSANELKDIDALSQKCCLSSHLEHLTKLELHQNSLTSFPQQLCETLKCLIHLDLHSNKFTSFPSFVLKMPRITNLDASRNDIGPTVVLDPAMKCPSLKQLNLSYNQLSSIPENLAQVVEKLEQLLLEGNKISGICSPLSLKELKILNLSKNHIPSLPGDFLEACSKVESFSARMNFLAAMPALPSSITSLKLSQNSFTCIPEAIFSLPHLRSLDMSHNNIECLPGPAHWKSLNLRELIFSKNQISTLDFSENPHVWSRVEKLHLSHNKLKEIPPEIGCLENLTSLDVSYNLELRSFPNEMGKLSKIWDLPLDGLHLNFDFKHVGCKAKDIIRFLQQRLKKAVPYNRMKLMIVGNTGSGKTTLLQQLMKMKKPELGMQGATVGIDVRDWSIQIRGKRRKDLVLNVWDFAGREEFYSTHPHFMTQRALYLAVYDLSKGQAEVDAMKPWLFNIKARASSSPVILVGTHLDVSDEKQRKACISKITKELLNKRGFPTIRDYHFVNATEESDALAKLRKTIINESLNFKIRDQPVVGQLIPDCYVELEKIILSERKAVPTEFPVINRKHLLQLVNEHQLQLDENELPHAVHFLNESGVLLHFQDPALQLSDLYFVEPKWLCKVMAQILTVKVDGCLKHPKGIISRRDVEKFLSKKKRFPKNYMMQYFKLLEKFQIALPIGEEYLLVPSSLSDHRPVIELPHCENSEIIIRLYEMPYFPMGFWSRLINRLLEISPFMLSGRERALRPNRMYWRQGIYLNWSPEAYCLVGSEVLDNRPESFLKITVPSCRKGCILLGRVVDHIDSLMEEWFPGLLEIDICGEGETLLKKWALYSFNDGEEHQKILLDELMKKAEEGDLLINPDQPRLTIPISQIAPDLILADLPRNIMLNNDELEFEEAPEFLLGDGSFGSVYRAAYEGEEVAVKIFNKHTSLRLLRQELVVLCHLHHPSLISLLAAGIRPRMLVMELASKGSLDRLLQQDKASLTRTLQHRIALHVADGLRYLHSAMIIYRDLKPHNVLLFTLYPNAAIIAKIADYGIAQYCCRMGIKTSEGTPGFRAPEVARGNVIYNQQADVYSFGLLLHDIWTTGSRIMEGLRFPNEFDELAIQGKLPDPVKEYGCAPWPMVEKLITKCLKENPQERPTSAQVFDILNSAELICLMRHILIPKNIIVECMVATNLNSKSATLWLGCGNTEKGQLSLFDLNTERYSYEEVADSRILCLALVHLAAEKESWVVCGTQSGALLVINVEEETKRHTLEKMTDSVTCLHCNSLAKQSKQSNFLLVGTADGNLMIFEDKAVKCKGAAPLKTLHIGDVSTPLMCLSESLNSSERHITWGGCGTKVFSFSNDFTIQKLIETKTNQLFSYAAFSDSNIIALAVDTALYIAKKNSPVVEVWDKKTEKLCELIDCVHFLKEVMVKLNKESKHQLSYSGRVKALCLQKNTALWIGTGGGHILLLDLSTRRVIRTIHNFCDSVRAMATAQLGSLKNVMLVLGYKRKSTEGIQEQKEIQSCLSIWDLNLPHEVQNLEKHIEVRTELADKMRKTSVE

In the case of `CCCNc1nc(Nc2ccc(C(=O)N3CCC(N4CCOCC4)CC3)c3c2OCCO3)nc2[nH]cc(Cl)c12` [Compound 2, (8-((5-chloro-4-(propylamino)-7H-pyrrolo[2,3-d]pyrimidin-2-yl)amino)-2,3-dihydrobenzo[b][1,4]dioxin-5-yl)(4-morpholinopiperidin-1-yl)methanone], the “inhibition of the phosphorylation of Ser935 in wild-type LRKK2” value (shortened to “inhibition”) is reported as “inhibited the phosphorylation of Ser935 in wild-type LRKK2 with potency similar to known LRRK2 inhibitor LRRK2-IN-1”.
In the case of `CCCNc1nc(Nc2ccc(S(=O)(=O)N3CCC(N4CCOCC4)CC3)cc2OC)nc2[nH]cc(Cl)c12` [Compound 19, 5-chloro-N2-(2-methoxy-4-((4-morpholinopiperidin-1-yl)sulfonyl)phenyl)-N4-propyl-7H-pyrrolo[2,3-d]pyrimidine-2,4-diamine], the “inhibition” value is reported as “inhibited the phosphorylation of Ser935 in wild-type LRKK2 with potency similar to known LRRK2 inhibitor LRRK2-IN-1”.
In the case of `COc1cc(C(=O)N2CCC(N3CCN(C)CC3)CC2)ccc1Nc1ncc2c(n1)N(C)c1ccccc1C(=O)N2C` [LRRK2-IN-1, reference compound], the “inhibition” value is reported as “inhibition of the phosphorylation of Ser935”.
